Results: patent US7622471B2, “Pyrazole derivatives having a pyridazine and pyridine functionality” (Daiichi Pharmaceutical Co., Ltd., priority 2003, dated 2009)
Where two headings read alike, the source gives them in different places.

Columns and labels:
[1] = tested on: collagen-induced platelet aggregation; test: Platelet aggregation-inhibiting action (collagen-induced aggregation of human platelet rich plasma); assay type: cell-based; conditions: human PRP, read-out: Inhibition of collagen-induced platelet aggregation, IC50
Experimental: Human blood was collected in the presence of 3.13% sodium citrate as an anticoagulant in a volume 1/10 the blood volume. The collected blood was centrifuged at 180 g for 10 minutes so as to separate the upper layer; i.e., platelet rich plasma (PRP) from the blood. The remaining lower layer was further centrifuged at 1600 g for 10 minutes, and platelet poor plasma (PPP); i.e., the thus-obtained upper layer, was collected. A solution (1 μL) of the inventive compound was added to PRP (200 μL), and the mixture was allowed to stand at 37° C. for 2 minutes. Subsequently, collagen (2 μL) was added to the resultant mixture so as to induce platelet aggregation. Percent platelet aggregation was measured by means of PAM-12C(SSR Engineering). Optical transmittance of PPP was employed as the value reflecting the state in which 100% coagulation occurred. Percent platelet aggregation values of PRP were determined at a series of concentrations of each Example compound. From the determined values, IC50 with respect to each compound was calculated.

[2] = molecular target: T1, cyclooxygenase-2 (COX-2) (Homo sapiens, UniProt P35354); test: Inhibitory effect on COX-2 (COX Inhibitor Screening Assay Kit, PGF2α ELISA); assay type: biochemical; conditions: 50 μM compound
T1 construct: purchased Cayman Chemical Company 560101 and 560121
T1 sequence (P35354 18-604): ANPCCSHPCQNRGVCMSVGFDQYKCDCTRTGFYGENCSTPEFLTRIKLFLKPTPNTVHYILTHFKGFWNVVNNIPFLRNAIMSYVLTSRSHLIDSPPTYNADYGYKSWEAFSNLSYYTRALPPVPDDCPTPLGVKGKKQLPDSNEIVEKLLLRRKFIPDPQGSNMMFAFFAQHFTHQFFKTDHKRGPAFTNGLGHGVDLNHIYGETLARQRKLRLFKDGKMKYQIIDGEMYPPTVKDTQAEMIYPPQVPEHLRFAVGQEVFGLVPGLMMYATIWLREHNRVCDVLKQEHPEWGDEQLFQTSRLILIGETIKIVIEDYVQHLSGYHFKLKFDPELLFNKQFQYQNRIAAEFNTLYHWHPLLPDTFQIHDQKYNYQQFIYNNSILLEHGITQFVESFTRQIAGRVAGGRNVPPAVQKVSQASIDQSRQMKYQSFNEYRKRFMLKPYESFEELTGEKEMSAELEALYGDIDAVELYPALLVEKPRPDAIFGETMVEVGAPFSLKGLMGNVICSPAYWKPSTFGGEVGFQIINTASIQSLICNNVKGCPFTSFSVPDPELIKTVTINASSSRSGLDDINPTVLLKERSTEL
Experimental: (§1) Inhibitory activity against COX-1 and COX-2 of the compounds produced in the Examples was measured using a COX Inhibitor Screening Assay Kit (product of Cayman Chemical Company, Catalog Nos. 560101 and 560121).
(§2) Before starting the measurement, reaction buffer, heme, arachidonic acid, SnCl2, EIA buffer, washing buffer, prostaglandin (PG) screening EIA standard, PG screening acetylcholine esterase (AchE), tracer (chromogenic enzyme […] conjugate), and PG screening EIA antiserum were prepared ready for use.
(§3) (1) Production of PGF2α in the Presence of COX-1 or COX-2
(§4) A reaction mixture containing the compound of the Examples (50 μM) and COX-1 or COX-2 was incubated at 37° C. for 10 minutes. Arachidonic acid (10 μL) was added thereto, and the resultant mixture was further incubated at 37° C. for 2 minutes. 1N-Hydrochloric acid (50 μL) was added to the reaction mixture, to thereby stop the reaction. SnCl2 solution (100 μL) was added thereto, and the resultant mixture was kept at room temperature for 5 minutes.
(§5) (2) Quantitative Determination of PGF2α through ELISA
(§6) Antiserum (rabbit anti-PGF2αantibody, 50 μL) was added to the wells of 96 well plate that had been coated with mouse anti-rabbit IgG. A solution of PGF2α-containing mixture obtained above (2000-fold dilution, 50 μL) and AchE tracer (50 μL) were added to the well in this order, and the mixture was incubated at room temperature for 18 hours. The wells were washed 5 times with the washing buffer to remove an excessive AchE tracer, and Ellman reagent (200 μL) was added. After keeping the plate in a dark room for 60 minutes, absorbance at 405 nm was measured.
(§7) (3) Calculation of Inhibitory Activity of the Compound of the Examples
(§8) A calibration curve was obtained by use of the PG screening EIA standard, and the production amount of PGF2α was determined from the absorbance. Percent inhibition of COX-1 or COX-2 activity at 50 μM of the compound of the Examples was calculated.

[3] = molecular target: T2, cyclooxygenase-1 (COX-1) (Ovis aries, UniProt P05979); test: Inhibitory effect on COX-1 (COX Inhibitor Screening Assay Kit, PGF2α ELISA); assay type: biochemical; conditions: 50 μM compound
T2 construct: purchased Cayman Chemical Company 560101 and 560121
T2 sequence (P05979 25-600): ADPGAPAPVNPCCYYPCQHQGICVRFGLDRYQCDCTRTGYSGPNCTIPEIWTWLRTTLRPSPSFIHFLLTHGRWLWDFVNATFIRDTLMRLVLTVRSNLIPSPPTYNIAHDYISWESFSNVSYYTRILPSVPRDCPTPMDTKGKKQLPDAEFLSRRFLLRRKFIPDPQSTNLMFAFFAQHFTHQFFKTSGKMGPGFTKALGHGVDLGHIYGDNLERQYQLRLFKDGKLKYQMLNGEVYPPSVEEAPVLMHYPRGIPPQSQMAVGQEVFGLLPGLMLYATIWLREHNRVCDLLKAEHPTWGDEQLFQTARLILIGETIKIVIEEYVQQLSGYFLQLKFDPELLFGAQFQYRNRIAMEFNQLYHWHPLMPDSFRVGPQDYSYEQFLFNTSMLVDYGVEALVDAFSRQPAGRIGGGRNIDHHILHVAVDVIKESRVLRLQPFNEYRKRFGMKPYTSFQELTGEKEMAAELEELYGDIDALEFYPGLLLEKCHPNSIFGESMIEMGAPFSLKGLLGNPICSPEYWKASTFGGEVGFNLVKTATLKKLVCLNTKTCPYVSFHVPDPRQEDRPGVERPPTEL
Experimental: as §1, §2, §3, §4, §5, §6, §7, §8

[4] = tested on: collagen-induced platelet aggregation; conditions: prior-art compound, cited from earlier work
[5] = not dose-dependent; cited from earlier work

SMILES	IC50 [1]	Inhibitory effect against COX-2 at 50 μM (% inhibition) [2]	Inhibitory effect against COX-1 at 50 μM (% inhibition) [3]	also measured
COc1ccc(-n2nc(C(=O)N3CCN(C4CC4)CC3)cc2-c2ccccn2)cn1 [Example 55, 1-[1-(6-Methoxy-3-pyridyl)-5-(2-pyridyl)pyrazole-3-carbonyl]-4-cyclopropylpiperazine]	0.035 µM			
COc1ccc(-n2nc(C(=O)N3CCN(C)CC3)cc2-c2ccc[nH]2)cn1 [Example 167, 1-[1-(6-Methoxy-3-pyridyl)-5-(pyrrol-2-yl)pyrazole-3-carbonyl]-4-methylpiperazine]	0.029 µM			
COc1ccc(-n2nc(C(=O)N3CCN(C)CC3)cc2-c2ccccn2)nn1 [Example 132, 1-[1-(6-Methoxy-3-pyridazinyl)-5-(2-pyridyl)pyrazole-3-carbonyl]-4-methylpiperazine]	0.4 µM	10.5 % inhibition	2.7 % inhibition	
COc1ccc(-n2nc(C(=O)N3CCOCC3)cc2-c2ccc[nH]2)cn1 [Example 168, 4-[1-(6-Methoxy-3-pyridyl)-5-(pyrrol-2-yl)pyrazole-3-carbonyl]morpholine]	0.017 µM			
COc1ccc(-n2nc(C(=O)N3CCCC(F)(F)C3)cc2-c2ccccn2)nn1 [Example 140, 1-[1-(6-Methoxy-3-pyridazinyl)-5-(2-pyridyl)pyrazole-3-carbonyl]-3,3-difluoropiperidine]	0.11 µM			
COc1ccc(-n2nc(C(=O)N3CCCCC3)cc2-c2ccccn2)nn1 [Example 122, 1-[1-(6-Methoxy-3-pyridazinyl)-5-(2-pyridyl)pyrazole-3-carbonyl] piperidine]	0.75 µM	4.5 % inhibition	1 % inhibition	
CS(=O)(=O)c1ccc(-c2cc(C#N)nn2-c2ccc(F)cc2)cc1 [Compound (A)]				IC50 ([4]; read-out: IC50 value against collagen-induced platelet aggregation): 5.3 µM
COc1cnc(-n2nc(C(=O)N3CCN(C)CC3)cc2-c2ccccn2)cn1 [Example 144, 1-[1-(5-Methoxy-2-pyrazinyl)-5-(2-pyridyl)pyrazole-3-carbonyl]-4-methylpiperazine]	0.44 µM	8.8 % inhibition	9.7 % inhibition	
COc1ccc(-n2nc(C(=O)N3CCN(C)CC3)cc2-c2cnccn2)cn1 [Example 148, 1-[1-(6-Methoxy-3-pyridyl)-5-(2-pyrazinyl)pyrazole-3-carbonyl]-4-methylpiperazine]	0.09 µM			
COc1ccc(-n2nc(C(=O)N3CCN(C)C(=O)C3)cc2-c2ccccn2)cn1 [Example 23, 1-[1-(6-Methoxy-3-pyridyl)-5 (2-pyridyl)pyrazole-3-carbonyl]-4-methyl-3-oxopiperazine]	0.17 µM	3.4 % inhibition	−1.2 % inhibition	
COc1ccc(-n2nc(C(=O)N3CCCCN3C(C)=O)cc2-c2ccccn2)cn1 [Example 163, 1-[1-(6-Methoxy-3-pyridyl)-5-(2-pyridyl)pyrazole-3-carbonyl]-2-acetylhexahydropyridazine]	0.09 µM			
COc1ccc(-n2nc(C(=O)N3CCN(C)CC3)cc2-c2ccccc2)cn1 [Example 62, 1-[1-(6-Methoxy-3-pyridyl)-5-phenylpyrazole-3-carbonyl]-4-methylpiperazine]	0.12 µM	−2.6 % inhibition	−2.4 % inhibition	
COc1ccnc(-c2cc(C(=O)N3CCN(C)CC3)nn2-c2ccc(OC)nc2)c1 [Example 27, 1-[1-(6-Methoxy-3-pyridyl)-5-(4-methoxy-2-pyridyl)pyrazole-3-carbonyl]-4-methylpiperazine]	0.27 µM	−0.1 % inhibition	0.5 % inhibition	
CC(=O)Oc1ccccc1C(=O)O [Aspirin]				rate of side effects such as hemorrhage in gastrointestine (aspirin-induced ulcer) [5]: about 1 per 100 patients
COc1ccc(-n2nc(C(=O)N3CCCOCC3)cc2-c2ccccn2)cn1 [Example 160, 4-[1-(6-Methoxy-3-pyridyl)-5-(2-pyridyl)pyrazole-3-carbonyl]-1,4-oxazepane]	0.17 µM			
COc1ccc(-n2nc(C(=O)N3CCC(F)(F)CC3)cc2-c2ccccn2)nn1 [Example 139, 1-[1-(6-Methoxy-3-pyridazinyl)-5-(2-pyridyl)pyrazole-3-carbonyl]-4,4-difluoropiperidine]	0.042 µM	3.4 % inhibition	7.6 % inhibition	
COc1ccc(-c2cc(C(F)F)nn2-c2ccc(S(N)(=O)=O)cc2)cc1F [compound (B)]				platelet aggregation inhibitory activity compared with inhibitory activity against COX-2 ([4]; in words): not so potent
COc1ccc(-n2nc(C(=O)N3CCOCC3)cc2-c2ccccn2)cn1 [Example 36, 4-[1-(6-Methoxy-3-pyridyl)-5-(2-pyridyl)pyrazole-3-carbonyl]morpholine]	0.14 µM			
COc1ccc(-n2nc(C(=O)N3CC(N(C)C)C3)cc2-c2ccccc2)cn1 [Example 70, 1-[1-(6-Methoxy-3-pyridyl)-5-phenylpyrazole-3-carbonyl]-3-dimethylaminoazetidine]	0.26 µM			
